In US6221914A, “Sulfonamide bridging compounds that inhibit tryptase activity” (Array Biopharma Inc., priority 1998, dated 2001):

Test system: antigen-induced airway hyperresponsiveness in guinea pigs
Assay: Guinea pig airway hyperresponsiveness inhibition (ovalbumin-sensitized, histamine bronchoprovocation)
Format: in vivo, guinea pig (male Hartley)
Settings: 1 mg/kg, i.t., 1 hour before antigen challenge; histamine response 6 h after antigen
Experimental: The compounds of the invention were tested for their ability to inhibit hyperresponsiveness in a guinea pig airway hyperresponsiveness screen according to the following protocol:
Male Hartley guinea pigs (Charles River Laboratories Inc., Wilmington, Mass.) were sensitized to ovalbumin by intraperitoneal injection with a 0.5 mL solution of 10 μg ovalbumin and 10 mg aluminum hydroxide in phosphate-buffered saline. […] Seven to nine weeks after the initial injection, the animals were used to evaluate antigen-induced guinea pig airway responses.
In order to evaluate antigen-induced airway hyperresponsiveness in guinea pigs, a baseline histamine bronchoprovocation was initially conducted in unrestrained animals. Guinea pigs (450-600 g) were placed in a whole body plethysmograph (Buxco Electronics, Troy, N.Y.). The animals were exposed to 5 second bursts of histamine aerosol generated by a DeVilbis ultrasonic nebulizer (Somerset, Pa.). […] Three days after the histamine baseline determination, the guinea pigs were again placed in the whole body plethysmograph and challenged with a 3 second aerosolized burst of 0.1% ovalbumin in phosphate-buffered saline. Six hours after antigen exposure, the development of hyperresponsiveness was evaluated by repeating the histamine bronchoprovocation. Comparisons between treatment groups were based on areas under the histamine dose response curves (AUC).
Test compounds were administered by intratracheal instillation at a dose of 1 mg/kg in PBS (pH 7.2), 1 hour before the antigen challenge. After anesthetizing a guinea pig with inhaled methoxyflurane, an endotracheal tube (18 gauge Teflon® sheath) was visually passed into the trachea with the aid of a fiberoptic light source. Test agents (or PBS for control animals) was dosed through the tube followed by a bolus of air to facilitate dispersion.
Two-way analysis of variance (ANOVA) followed by the Fisher PLSD test was used to evaluate areas under the curve ("AUC") for histamine dose responses in guinea pigs. Significance was accepted for p<0.05.

N=C(N)c1cccc(S(=O)(=O)NCc2ccc(OCCCCCOc3ccc(CNS(=O)(=O)c4cccc(C(=N)N)c4)cc3)cc2)c1 [Example 41, 1,5-Bis-{4-[(3-carbamimidoyl-benzenesulfonylamino)-methyl]-phenoxy}-pentane]
Hyperresponsiveness AUC % Inhibition: 95%

N=C(N)c1cccc(S(=O)(=O)NCc2ccc(OCCCCOc3ccc(CNS(=O)(=O)c4cccc(C(=N)N)c4)cc3)cc2)c1 [Example 47, 1,4-Bis-{4-[(3-carbamimidoyl-benzenesulfonylamino)-methyl]-phenoxy}-butane]
Hyperresponsiveness AUC % Inhibition: 29%

N=C(N)c1ccc(S(=O)(=O)NCc2ccc(OCCCOc3ccc(CNS(=O)(=O)c4ccc(C(=N)N)cc4)cc3)cc2)cc1 [Example 50, 1,3-Bis-{4-[(4-carbamimidoyl-benzenesulfonylamino)-methyl]-phenoxy}-propane]
Hyperresponsiveness AUC % Inhibition: 50%

N=C(N)c1ccc(C(=O)NCc2ccc(OCCCCCOc3ccc(CNC(=O)c4ccc(C(=N)N)cc4)cc3)cc2)cc1 [Example 54, 1,5-Bis-{4-[(4-carbamimidoyl-benzenecarbonylamino)-methyl]-phenoxy}-pentane]
Hyperresponsiveness AUC % Inhibition: 53%

N=C(N)c1cccc(C(=O)NCc2ccc(OCCCCCOc3ccc(CNC(=O)c4cccc(C(=N)N)c4)cc3)cc2)c1 [Example 55, 1,5-Bis-{4-[(3-carbamimidoyl-benzenecarbonylamino)-methyl]-phenoxy}-pentane]
Hyperresponsiveness AUC % Inhibition: 107%

N=C(N)c1ccc(C(=O)NCc2ccc(OCCCCCCOc3ccc(CNC(=O)c4ccc(C(=N)N)cc4)cc3)cc2)cc1 [Example 56, 1,6-Bis-{4-[(4-carbamimidoyl-benzenecarbonylamino)-methyl]-phenoxy}-hexane]
Hyperresponsiveness AUC % Inhibition: 62%

N=C(N)c1ccc2[nH]c(CC(=O)NCc3ccc(OCCCCCOc4ccc(CNC(=O)Cc5nc6cc(C(=N)N)ccc6[nH]5)cc4)cc3)nc2c1 [Example 108]
Hyperresponsiveness AUC % Inhibition: 68%
